“Also recorded” adds a separate entry of the source. Read-outs that look alike come from different tables or passages of the source.
Key:
SARS-CoV-2 [1] = conditions: for effect on lung viral titer / viral propagation in mice: in vivo
SARS-CoV-2 [2] = test: Cellular antiviral assays against SARS-CoV-2; type: cell-based
[3] = tested on: SARS-CoV-2 infected A549-ACE2 cells; type: cell-based
A549 cells = type: cell-based, human; conditions: for induction of phospholipidosis: NBD-PE staining, A549 cells
human sigma-2 receptor = human sigma-2 receptor (Homo sapiens, UniProt Q5BJF2); conditions: radioligand displacement, fractional binding at 1 μM (Fig. 2E)
human sigma-2 receptor, sequence (Q5BJF2 whole entry): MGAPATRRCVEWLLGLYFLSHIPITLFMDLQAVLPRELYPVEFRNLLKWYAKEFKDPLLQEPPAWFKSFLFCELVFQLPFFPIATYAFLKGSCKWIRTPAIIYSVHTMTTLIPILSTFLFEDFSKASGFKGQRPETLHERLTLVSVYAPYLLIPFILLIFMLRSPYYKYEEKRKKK

human sigma-1 receptor = human sigma-1 receptor (Homo sapiens, UniProt Q99720); type: binding
human sigma-1 receptor, sequence (Q99720 whole entry): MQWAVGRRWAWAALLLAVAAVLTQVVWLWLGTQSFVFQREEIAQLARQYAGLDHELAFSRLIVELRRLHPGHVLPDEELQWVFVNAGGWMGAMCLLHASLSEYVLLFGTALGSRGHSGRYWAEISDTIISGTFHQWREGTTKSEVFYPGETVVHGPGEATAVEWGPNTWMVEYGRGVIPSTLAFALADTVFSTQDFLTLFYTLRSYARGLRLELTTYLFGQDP

Compound: CCCCc1oc2ccccc2c1C(=O)c1cc(I)c(OCCN(CC)CC)c(I)c1 [Amiodarone]
- effect on lung viral titer / viral propagation in mice (SARS-CoV-2 [1]): no substantial effect on viral propagation
- antiviral activity against SARS-CoV-2 in cells (SARS-CoV-2 [2]): mid-to high-nM activities against viral replication
- NBD-PE aggregates vs DMSO [3]: substantial increases in NBD-PE aggregates

Compound: CC[C@H]1OC(=O)[C@H](C)[C@@H](O[C@H]2C[C@@](C)(OC)[C@@H](O)[C@H](C)O2)[C@H](C)[C@@H](O[C@@H]2O[C@H](C)C[C@H](N(C)C)[C@H]2O)[C@](C)(O)C[C@@H](C)CN(C)[C@H](C)[C@@H](O)[C@]1(C)O [Azithromycin]
- induction of phospholipidosis (A549 cells): confirmed phospholipidosis-inducing activity

Compound: COc1cc2nc(N3CCCN(C)CC3)nc(NC3CCN(Cc4ccccc4)CC3)c2cc1OC [Bix 01294]
- NBD-PE aggregates vs DMSO [3]: substantial increases in NBD-PE aggregates
- SARS-CoV-2 spike protein signal [3]: nearly complete loss of spike protein signal
- induction of phospholipidosis (A549 cells): confirmed phospholipidosis-inducing activity

Compound: CN1CCC[C@@H]1CCO[C@](C)(c1ccccc1)c1ccc(Cl)cc1 [Clemastine]
- phospholipidosis (DIPL) (A549 cells): > 50 % of amiodarone

Compound: Cc1ccccc1NC(=N)Nc1ccccc1C [DTG, ditolylguanidine]
- antiviral activity against SARS-CoV-2 in cells (SARS-CoV-2 [2]): not antiviral; also recorded: no measurable antiviral effects
- induction of phospholipidosis (A549 cells): did not induce phospholipidosis

Compound: CNCC[C@H](Oc1cccc2ccccc12)c1cccs1 [Duloxetine]
- phospholipidosis inducer class (A549 cells): strong (key: > 50% of the strong phospholipidosis inducer amiodarone; medium: 50% > DIPL > 25% of amiodarone)

Compound: CC(C)(C)c1ccc(C(=O)CCCN2CCC(OC(c3ccccc3)c3ccccc3)CC2)cc1 [Ebastine]
- induction of phospholipidosis (A549 cells): confirmed phospholipidosis-inducing activity

Compound: COc1cc2c(cc1OC)CN(CCc1ccc(NC(=O)c3cccc4c(=O)c5cccc(OC)c5[nH]c34)cc1)CC2 [Elacridar]
- effect on lung viral titer / viral propagation in mice (SARS-CoV-2 [1]): modest antiviral effect
- dose above which mice exhibited toxicities (SARS-CoV-2 [1]; mice, i.p. once per day): higher than 3 mg/kg
- induction of phospholipidosis (A549 cells): non-phospholipidosis inducing

Compound: Cc1c2ccncc2c(C)c2c1[nH]c1ccccc12 [Ellipticine]
- phospholipidosis inducer class (A549 cells; DIPL relative to amiodarone): medium (key: > 50% of the strong phospholipidosis inducer amiodarone; medium: 50% > DIPL > 25% of amiodarone)
- induction of phospholipidosis (A549 cells): confirmed phospholipidosis-inducing activity

Compound: O=C1NCN(c2ccccc2)C12CCN(CCCC(c1ccc(F)cc1)c1ccc(F)cc1)CC2 [Fluspirilene]
- phospholipidosis inducer class (A549 cells; DIPL relative to amiodarone): medium (key: > 50% of the strong phospholipidosis inducer amiodarone; medium: 50% > DIPL > 25% of amiodarone)

Compound: CCN(CCO)CCCC(C)Nc1ccnc2cc(Cl)ccc12 (stereo not shown) [Hydroxychloroquine]
- NBD-PE aggregates vs DMSO [3]: substantial increases in NBD-PE aggregates

Compound: CC1CCN(CCCC(=O)c2ccc(F)cc2)CC1 [Melperone]
- antiviral activity against SARS-CoV-2 in cells (SARS-CoV-2 [2]): not antiviral; also recorded: no measurable antiviral effects
- induction of phospholipidosis (A549 cells): did not induce phospholipidosis; also recorded: non-phospholipidosis inducing

Compound: CN1CCC(CN2c3ccccc3Sc3ccccc32)C1 (stereo not shown) [Methdilazine]
- phospholipidosis inducer class (A549 cells; DIPL relative to amiodarone): medium (key: > 50% of the strong phospholipidosis inducer amiodarone; medium: 50% > DIPL > 25% of amiodarone)

Compound: Cc1cc2c(s1)Nc1ccccc1N=C2N1CCN(C)CC1 [Olanzapine]
- phospholipidosis inducer class (A549 cells; DIPL relative to amiodarone): medium (key: > 50% of the strong phospholipidosis inducer amiodarone; medium: 50% > DIPL > 25% of amiodarone)
- induction of phospholipidosis (A549 cells): did induce phospholipidosis

Compound: COc1cccc2c1CCCC2CCCN1CCN(C2CCCCC2)CC1 (stereo not shown) [PB28]
- sigma-2 binding (human sigma-2 receptor): strong ligand of both sigma-1 and sigma-2
- effect on lung viral titer / viral propagation in mice (SARS-CoV-2 [1]): no substantial effect on viral propagation
- NBD-PE aggregates vs DMSO [3]: substantial increases in NBD-PE aggregates
- induction of phospholipidosis (A549 cells): both induce phospholipidosis
- sigma-1 binding (human sigma-1 receptor): strong ligand of both sigma-1 and sigma-2

Compound: CN[C@H]1CC[C@@H](c2ccc(Cl)c(Cl)c2)c2ccccc21 [Sertraline]
- effect on lung viral titer / viral propagation in mice (SARS-CoV-2 [1]): no substantial effect on viral propagation
- antiviral activity against SARS-CoV-2 in cells (SARS-CoV-2 [2]): mid-to high-nM activities against viral replication
- NBD-PE aggregates vs DMSO [3]: substantial increases in NBD-PE aggregates
- phospholipidosis (DIPL) (A549 cells): > 50 % of amiodarone

Compound: CC/C(=C(\c1ccccc1)c1ccc(OCCN(C)C)cc1)c1ccccc1 [Tamoxifen]
- effect on lung viral titer / viral propagation in mice (SARS-CoV-2 [1]): no substantial effect on viral propagation
- antiviral activity against SARS-CoV-2 in cells (SARS-CoV-2 [2]): mid-to high-nM activities against viral replication

Compound: CCSc1ccc2c(c1)N(CCCN1CCN(C)CC1)c1ccccc1S2 [Thiethylperazine]
- phospholipidosis inducer class (A549 cells; DIPL relative to amiodarone): medium (key: > 50% of the strong phospholipidosis inducer amiodarone; medium: 50% > DIPL > 25% of amiodarone)

Compound: CN(C)CCOc1ccc(/C(=C(/CCCl)c2ccccc2)c2ccccc2)cc1 [Toremifene]
- phospholipidosis inducer class (A549 cells; DIPL relative to amiodarone): strong (key: > 50% of the strong phospholipidosis inducer amiodarone; medium: 50% > DIPL > 25% of amiodarone)
